Data published in US20240294545A1 (CSPC Zhongqi Pharmaceutical Technology (Shijiazhuang) Co., …, priority 2020, published 2024).
Like-named read-outs stand apart in the source and are kept apart here. Marks after values point to notes of the source that are not given here.

How the values were obtained:
[1] = molecular target: ATM (Homo sapiens (Human), UniProt Q13315); assay: Caliper mobility shift assay for ATM; format: biochemical; details: read-out: IC50 of inhibitory activity on ATM kinase
Procedure: 1.2 Determination of the Inhibitory Activities of Compounds on ATM: Caliper Mobility Shift Assay for ATM
To a 96-well plate, 98 μL of DMSO and 2 μL of the 10 mM stock solution were added and mixed evenly so that the concentration of the solution was 200 μM.
Based on the inhibitory rates of the compound at different concentrations, IC50 was calculated according to the formula: Y=Bottom+(Top−Bottom)/(1+(IC50/X)^HillSlope).

[2] = system: ATM-phosphorylated KAP1; assay: Intracellular ATM-phosphorylated KAP1 level, ICW assay in MCF7 cells; format: cell-based, Human; details: for IC50: MCF7 cells, 2 h compound, 10 Gy irradiation, further 1 h, read-out: pKAP1 IC50; for inhibitory effect on ATM KAP phosphorylation, in words: cellular level, compared with AZD1390 as positive control
Procedure: 4 Inhibition on Intracellular ATM-Phosphorylated KAP1 Level by the Compounds of the Present Disclosure: ICW Assay
• Cell: Human breast cancer cell line MCF7 • Materials and reagents:
4.2 Experimental Procedures
• (1) Cell inoculation • MCF7 cells were inoculated on a 384-well plate, 10000 cells/well (25 μL/well), and cultured overnight at 37° C. with 5% CO2. • (2) Activity detection • 1) The compound was formulated into a 100 mM solution with DMSO and then sequentially diluted with a gradient of 1:3 to yield a total of 10 concentration gradients, wherein the maximum concentration was 100 μM. • 2) 25 nL of each of the compound solutions with gradient concentrations prepared in step 1) was added to each well of the cell plate (Corning #356663) by using I-DOT One, resulting in a final concentration of 100 nM (maximum dose). • 3) The cell plate containing compound was incubated at 37° C. with 5% CO2 for 2 h. After 2 h, the cell plate was irradiated with a dose of 10 Gy, and then further incubated for 1 h. • 4) 25 μL of 8% paraformaldehyde was added to each well, followed by incubating at room temperature for 20 min. • 5) The 8% paraformaldehyde was discarded, followed by adding 0.1% TrintonX-100 and incubating at room temperature for 30 min. • 6) Odessey blocking buffer was added at 50 μL/well, followed by incubating at room temperature for 1.5 h. • 7) The Odessey blocking buffer was discarded, and then a primary antibody (Phospho-KAP1, 1:2000 dilution) was added, followed by incubating overnight at 4° C. • 8) The primary antibody was removed, followed by washing with PBS+0.1% Tween 20 for 5 times. • 9) DNA dye DRAQ5 coated with a second antibody (IRDye 800CW Goat anti-Rabbit, 1:4000 dilution) was added, followed by incubating at room temperature for 1 h. • 10) The second antibody was removed, followed by washing with PBS+0.1% Tween 20 for 5 times. • 11) PBS+0.1% Tween 20 was sucked off with Odyssey. • (3) Data analysis • 1) the relative ratio of Channel 800/Channel 700 for each well was detected. • 2) % of KAP1 phosphorylation was calculated according to the following formula:
% of KAP1 phosphorylation=[(Ratiocmpd−(Ratio)Positive)/((Ratio)Vehicle−(Ratio)Positive]*100 • (Ratio)Positive: the mean value of the test values of each positive control well in the test cell plate; • (Ratio)Vehicle: the mean value of the test values of each negative control well in the test cell plate. • 3) the IC50 of each compound was calculated and the dose-effect curve was plotted: % of KAP1 phosphorylation and log of compound's concentration were fit by using Graphpad 8.0 so as to calculate the IC50.
[formula] • X: log of compound's concentration • Y: % of KAP1 phosphorylation

[3] = system: Human glioblastoma cell line LN-18; assay: LN18 cell proliferation combined with radiotherapy (CTG assay); format: cell-based; details: for IC50: LN18 cells, 1 Gy irradiation 1 h after compound, 6 days, CTG; for inhibitory effect on LN18 cell proliferation, in words: combined with radiotherapy, compared with AZD1390 as positive control;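 as to IC50: readout is CTG luminescence proliferation not KAP1 phosphorylation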
Procedure: 5 Test of the Inhibitory Activities of the Compounds of the Present Disclosure Combined with Radiotherapy on LN18 Cell Proliferation
• Cell: Human glioblastoma cell line LN-18
5.2 Experimental Procedures
• (1) Cell inoculation • 1) The cell culture fluid was preheated at 37° C. • 2) A complete culture medium of LN18 cells was prepared, at a ratio of DMEM medium:FBS=95:5 (V/V). • 3) Cells were digested with trypsin, collected to serve as a cell suspension, and counted, the cell suspension was then added into a 96-well plate at 1500 cells/well and 100 μL of cell fluid/well, and three parallel wells were set. • 4) After inoculated in the plate, the cells were cultured overnight under the condition of 37° C. and 5% CO2. • (2) Compound addition and incubation • 1) AZD1390 and tested compounds, respectively, were sequentially diluted 5 times with DMSO, starting from the concentration of 10 mM and yielding the concentrations of 10, 2, 0.4, 0.08, 0.016, 0.0032, 0.00064, 0.000128, and 0.0000256 mM in turn. The compound solutions at the above concentrations were diluted 5000 times with the complete culture medium. The final 2× concentrations were in order 2000, 400, 80, 16, 3.2, 0.64, 0.128, 0.0256, and 0.00512 nM. The vehicle control was 0.02% DMSO culture fluid. • 2) A complete culture medium containing 100 μL of the compound solution was added to each well, and the final concentrations of the compounds in the wells were in order 1000, 200, 40, 8, 1.6, 0.32, 0.064, 0.0128, and 0.00256 nM. The 0.01% DMSO culture fluid was contained in the vehicle control well. After incubated with compound for 1 h, the cells were irradiated at a dose of 1 Gy. • 3) After irradiation, the plate was put into an incubator and incubated under the condition of 37° C. and 5% CO2 for 6 days. Then detection was performed by adopting CTG assay (100 μL of liquid from each well was sucked out and discarded, and 50 μL of CTG reagent was added to each well, and incubated at room temperature for 30 min, and the luminescence intensity was detected). • (3) Data analysis • 1) The Luminescence signal (RLU) of each well was detected. • 2) Proliferation inhibitory activity was calculated according to the formula: % inhibitory activity=RLUtreatment/RLUAvg(Vehicle)*100. 5.3 the Inhibitory Activities of Compounds of the Present Disclosure Combined with Radiotherapy on LN18 Cell Proliferation

[4] = system: subcutaneous xenograft tumor of human glioblastoma LN-18; assay: LN-18 subcutaneous xenograft, combined with radiotherapy; format: in vivo, NOG mice; details: compound 5 mg/kg intragastric qd × 5 + IR 1 Gy, day 17
Procedure: 9 Efficacy Test of the Compounds of the Present Disclosure Combined with Radiotherapy on Inhibiting the Growth of Subcutaneous Xenograft Tumor of Human Glioblastoma LN-18
9.1 Experimental Animals: NOG Mice, SPF, Female, 18 to 22 g.
LN-18 tumor cells, DMEM medium:fetal bovine serum=95%:5%, accompanied by adding 100 U/mL penicillin and 100 μg/mL streptomycin, 37° C., 5% CO2.
LN18 tumor cells resuspended in serum-free DMEM medium were inoculated subcutaneously in the right costal region of experimental animals at 1.5*10^7/0.15 mL, and the animals were grouped when the tumor grew to 100 to 150 mm^3. Radiotherapy was performed 1 h after administration of compounds.
Tumor volume: The tumor volume was measured twice a week with a vernier caliper, and the long diameter and short diameter of tumor were measured. The tumor volume was calculated as follows: tumor volume (TV)=0.5×long diameter×short diameter^2. Tumor growth inhibitory rate (TGI %) was calculated according to the tumor volume. TVXn represents the mean tumor volume on day n of the treatment group, TVX0 represents the mean tumor volume on day 0 of the treatment group, TVMn represents the mean tumor volume on day n of the control group, and TVM0 represents the mean tumor volume on day 0 of the control group.

[5] = Homo sapiens, light or radiation study
[6] = Homo sapiens, LN-18, light or radiation study

ATM, sequence (Q13315 whole entry): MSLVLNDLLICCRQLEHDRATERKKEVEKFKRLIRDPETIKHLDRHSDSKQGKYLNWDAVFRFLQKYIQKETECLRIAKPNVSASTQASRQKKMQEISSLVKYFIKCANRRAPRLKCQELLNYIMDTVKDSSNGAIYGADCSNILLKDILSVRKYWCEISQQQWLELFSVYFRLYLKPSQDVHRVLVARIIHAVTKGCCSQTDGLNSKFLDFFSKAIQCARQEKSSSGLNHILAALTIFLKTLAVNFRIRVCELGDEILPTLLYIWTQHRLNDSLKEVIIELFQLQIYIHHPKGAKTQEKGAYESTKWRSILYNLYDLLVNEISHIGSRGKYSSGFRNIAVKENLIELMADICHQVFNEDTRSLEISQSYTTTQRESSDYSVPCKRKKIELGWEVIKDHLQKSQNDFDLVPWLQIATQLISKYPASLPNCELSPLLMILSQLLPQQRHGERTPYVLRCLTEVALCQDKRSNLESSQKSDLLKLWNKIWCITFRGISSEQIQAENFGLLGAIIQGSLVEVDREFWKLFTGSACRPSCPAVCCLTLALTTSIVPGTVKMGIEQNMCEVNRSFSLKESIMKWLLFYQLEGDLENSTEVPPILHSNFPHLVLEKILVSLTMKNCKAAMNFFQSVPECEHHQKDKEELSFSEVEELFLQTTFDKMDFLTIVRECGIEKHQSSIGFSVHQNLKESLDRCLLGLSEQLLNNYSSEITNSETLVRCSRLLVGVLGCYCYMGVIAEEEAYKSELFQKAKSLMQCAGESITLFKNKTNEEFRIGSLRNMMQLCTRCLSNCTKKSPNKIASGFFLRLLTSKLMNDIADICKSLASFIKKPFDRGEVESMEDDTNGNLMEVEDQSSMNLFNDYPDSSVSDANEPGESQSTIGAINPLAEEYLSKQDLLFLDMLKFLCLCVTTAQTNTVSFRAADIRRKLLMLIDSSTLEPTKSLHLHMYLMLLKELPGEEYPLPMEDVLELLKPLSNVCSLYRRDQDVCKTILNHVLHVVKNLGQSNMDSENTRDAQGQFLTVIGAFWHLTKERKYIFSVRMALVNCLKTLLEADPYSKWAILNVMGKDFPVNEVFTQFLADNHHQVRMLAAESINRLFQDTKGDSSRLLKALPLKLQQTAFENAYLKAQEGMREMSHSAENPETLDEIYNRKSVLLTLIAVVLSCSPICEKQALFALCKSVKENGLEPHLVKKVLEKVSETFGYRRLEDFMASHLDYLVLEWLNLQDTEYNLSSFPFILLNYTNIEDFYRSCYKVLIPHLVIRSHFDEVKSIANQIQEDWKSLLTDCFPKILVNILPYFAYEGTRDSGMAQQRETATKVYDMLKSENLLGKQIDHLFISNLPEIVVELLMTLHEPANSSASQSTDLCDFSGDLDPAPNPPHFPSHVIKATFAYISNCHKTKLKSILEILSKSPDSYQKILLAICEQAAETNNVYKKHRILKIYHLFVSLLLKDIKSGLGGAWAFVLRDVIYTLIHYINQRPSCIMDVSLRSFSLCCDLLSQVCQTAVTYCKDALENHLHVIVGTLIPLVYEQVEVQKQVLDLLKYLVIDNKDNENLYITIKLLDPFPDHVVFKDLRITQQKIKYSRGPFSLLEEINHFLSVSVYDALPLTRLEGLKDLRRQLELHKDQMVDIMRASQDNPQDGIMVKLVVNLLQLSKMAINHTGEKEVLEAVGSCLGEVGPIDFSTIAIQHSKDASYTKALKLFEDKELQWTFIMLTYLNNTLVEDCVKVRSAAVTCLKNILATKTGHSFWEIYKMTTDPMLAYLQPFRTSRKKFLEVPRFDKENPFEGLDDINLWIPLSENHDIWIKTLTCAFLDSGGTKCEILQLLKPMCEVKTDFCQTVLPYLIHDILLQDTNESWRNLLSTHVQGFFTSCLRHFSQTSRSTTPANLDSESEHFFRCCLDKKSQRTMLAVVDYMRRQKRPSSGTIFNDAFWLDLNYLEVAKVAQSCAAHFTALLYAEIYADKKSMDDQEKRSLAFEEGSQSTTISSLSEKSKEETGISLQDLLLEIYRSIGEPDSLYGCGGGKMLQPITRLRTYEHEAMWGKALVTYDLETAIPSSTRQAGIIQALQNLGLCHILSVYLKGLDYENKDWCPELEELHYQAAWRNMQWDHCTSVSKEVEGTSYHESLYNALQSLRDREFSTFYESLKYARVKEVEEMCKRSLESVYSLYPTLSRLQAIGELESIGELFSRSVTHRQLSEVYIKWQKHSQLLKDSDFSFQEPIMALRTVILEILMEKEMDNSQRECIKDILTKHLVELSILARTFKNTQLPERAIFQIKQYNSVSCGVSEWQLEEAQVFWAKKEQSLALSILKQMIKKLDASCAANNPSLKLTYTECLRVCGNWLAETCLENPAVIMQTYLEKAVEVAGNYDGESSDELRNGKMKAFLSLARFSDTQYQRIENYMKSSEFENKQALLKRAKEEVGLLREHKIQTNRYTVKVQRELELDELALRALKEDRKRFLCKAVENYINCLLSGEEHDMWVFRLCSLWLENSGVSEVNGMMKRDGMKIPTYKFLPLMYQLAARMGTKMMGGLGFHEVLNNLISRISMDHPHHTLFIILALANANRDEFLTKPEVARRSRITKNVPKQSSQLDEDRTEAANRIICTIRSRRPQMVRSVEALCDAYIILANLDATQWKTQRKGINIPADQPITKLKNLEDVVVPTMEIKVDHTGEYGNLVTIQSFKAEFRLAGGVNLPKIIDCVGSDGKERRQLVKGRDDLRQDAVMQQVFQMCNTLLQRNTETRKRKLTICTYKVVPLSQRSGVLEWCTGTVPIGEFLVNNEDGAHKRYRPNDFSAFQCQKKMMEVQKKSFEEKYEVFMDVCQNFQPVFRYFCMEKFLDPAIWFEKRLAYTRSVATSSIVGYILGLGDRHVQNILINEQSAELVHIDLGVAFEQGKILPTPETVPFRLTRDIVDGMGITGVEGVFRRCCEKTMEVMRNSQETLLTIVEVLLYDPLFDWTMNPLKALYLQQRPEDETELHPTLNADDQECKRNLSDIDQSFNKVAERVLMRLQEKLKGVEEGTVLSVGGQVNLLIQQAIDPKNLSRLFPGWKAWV

SMILES: C[C@H]1COc2c(-c3ccc(OCCCN4CCC5(CC4)COC5)nc3)ccc3ncc4c(c23)n1c(=O)n4C [Example A-184, (S)-7-(6-(3-(2-oxa-7-azaspiro[3.5]nonan-7-yl)propoxy)pyridin-3-yl)-2,10-dimethyl-9,10-dihydro-8-oxa-2,4,10a-triazanaphtho[2,1,8-cde]azulen-1(2H)-one]
- IC50 [1]: 250 pM
- IC50 [2, 5]: 330 pM
- inhibitory effect on ATM KAP phosphorylation, in words [2]: higher than that of AZD1390
- IC50 [3, 6]: 3840 pM

SMILES: Cn1c(=O)n2c3c4c(c(-c5ccc(OCCCN6CCCCC6)nc5)ccc4ncc31)OCC21CC1 [Example A-68, 2-methyl-7-(6-(3-(piperidin-1-yl)propoxy)pyridin-3-yl)-2,9-dihydro-1H-spiro[8-oxa-2,4,10a-triazanaphtho[2,1,8-cde]azulene-10,1′-cyclopropan]-1-one]
- IC50 [1]: 370 pM
- IC50 [2, 5]: 900 pM
- IC50 [3, 6]: 6830 pM
- D 17 TGI [4]: 83.9%
- D 17 TV (MEAN ± SD) [4]: 285 ± 61***^# mm^3

SMILES: C[C@H]1COc2c(-c3ccc(OCCCN4CCC5(CC4)CC5)nc3)ccc3ncc4c(c23)n1c(=O)n4C [Example A-183, (S)-7-(6-(3-(6-azaspiro[2.5]octan-6-yl)propoxy)pyridin-3-yl)-2,10-dimethyl-9,10-dihydro-8-oxa-2,4,10a-triazanaphtho[2,1,8-cde]azulen-1(2H)-one]
- IC50 [1]: 230 pM
- IC50 [2, 5]: 220 pM
- inhibitory effect on ATM KAP phosphorylation, in words [2]: higher than that of AZD1390
- IC50 [3, 6]: 1390 pM
- inhibitory effect on LN18 cell proliferation, in words [3]: higher than that of AZD1390
- D 17 TGI [4]: 85.7%
- D 17 TV (MEAN ± SD) [4]: 269 ± 89***^# mm^3

SMILES: C[C@H]1CNc2c(-c3ccc(OCCCN4CCCCC4)nc3)ccc3ncc4c(c23)n1c(=O)n4C [Example A-198, (S)-2,10-dimethyl-7-(6-(3-(piperidin-1-yl)propoxy)pyridin-3-yl)-2,8,9,10-tetrahydro-1H-2,4,8,10a-tetraazanaphtho[2,1,8-cde]azulen-1(2H)-one]
- IC50 [1]: 440 pM
- IC50 [2]: 640 pM
- IC50 [3]: 5930 pM
- D 17 TGI [4]: 79.3%
- D 17 TV (MEAN ± SD) [4]: 326 ± 77***^# mm^3

SMILES: CC[C@H]1CNc2c(-c3ccc(OCCCN4CCCCC4)nc3)ccc3ncc4c(c23)n1c(=O)n4C [Example A-203, (S)-10-ethyl-2-methyl-7-(6-(3-(piperidin-1-yl)propoxy)pyridin-3-yl)-2,8,9,10-tetrahydro-1H-2,4,8,10a-tetraazanaphtho[2,1,8-cde]azulen-1(2H)-one]
- IC50 [1]: 540 pM
- IC50 [2]: 830 pM
- IC50 [3]: 5660 pM
- D 17 TGI [4]: 71.4%
- D 17 TV (MEAN ± SD) [4]: 396 ± 121*** mm^3

SMILES: C[C@H]1CNc2c(-c3ccc(OCCCN4CCC(C)(C)CC4)nc3)ccc3ncc4c(c23)n1c(=O)n4C [Example A-212, (S)-7-(6-(3-(4,4-dimethylpiperidin-1-yl)propoxy)pyridin-3-yl)-2,10-dimethyl-2,8,9,10-tetrahydro-1H-2,4,8,10a-tetraazanaphtho[2,1,8-cde]azulen-1(2H)-one]
- IC50 [1]: 370 pM
- IC50 [2]: 370 pM
- inhibitory effect on ATM KAP phosphorylation, in words [2]: higher than that of AZD1390
- IC50 [3]: 1480 pM
- inhibitory effect on LN18 cell proliferation, in words [3]: higher than that of AZD1390

SMILES: CC1CCN(CCCOc2ccc(-c3ccc4ncc5c6c4c3NC[C@H](C)n6c(=O)n5C)cn2)CC1 [Example A-211, (S)-2,10-dimethyl-7-(6-(3-(4-methylpiperidin-1-yl)propoxy)pyridin-3-yl)-2,8,9,10-tetrahydro-1H-2,4,8,10a-tetraazanaphtho[2,1,8-cde]azulen-1(2H)-one]
- IC50 [1]: 330 pM
- IC50 [2]: 330 pM
- inhibitory effect on ATM KAP phosphorylation, in words [2]: higher than that of AZD1390
- IC50 [3]: 2710 pM
- inhibitory effect on LN18 cell proliferation, in words [3]: higher than that of AZD1390
